In PubChem BioAssay AID1259407 (Chemical Carcinogenesis Research Information System (CCRIS), 2018):
Activity calls are given as the source filed them. The rule behind the calls is not given here.

System: CCRIS mutagenicity, Ames/micronucleus/aberration tests
Assay: CCRIS mutagenicity studies
[1] = Test System: AMES SALMONELLA TYPHIMURIUM, Strain/Indicator: TA98, Metabolic Activation: NONE, Method: STANDARD PLATE
[2] = Test System: AMES SALMONELLA TYPHIMURIUM, Strain/Indicator: TA100, Metabolic Activation: NONE, Method: STANDARD PLATE
[3] = Test System: AMES SALMONELLA TYPHIMURIUM, Strain/Indicator: TA97, Metabolic Activation: NONE, Method: PREINCUBATION
[4] = Test System: AMES SALMONELLA TYPHIMURIUM, Strain/Indicator: TA98, Metabolic Activation: NONE, Method: PREINCUBATION
[5] = Test System: AMES SALMONELLA TYPHIMURIUM, Strain/Indicator: TA100, Metabolic Activation: NONE, Method: PREINCUBATION

## CCO[Si](C)(OCC)OCC
[1]
  mutagenic call: inactive; negative
Test System: AMES SALMONELLA TYPHIMURIUM, Strain/Indicator: TA98, Metabolic Activation: RAT LIVER S-9, AROCLOR 1254, Method: STANDARD PLATE
  mutagenic call: inactive; negative
[2]
  mutagenic call: inactive; negative
Test System: AMES SALMONELLA TYPHIMURIUM, Strain/Indicator: TA100, Metabolic Activation: RAT LIVER S-9, AROCLOR 1254, Method: STANDARD PLATE
  mutagenic call: inactive; negative
Test System: AMES SALMONELLA TYPHIMURIUM, Strain/Indicator: TA1535, Metabolic Activation: NONE, Method: STANDARD PLATE
  mutagenic call: inactive; negative
Test System: AMES SALMONELLA TYPHIMURIUM, Strain/Indicator: TA1535, Metabolic Activation: RAT LIVER S-9, AROCLOR 1254, Method: STANDARD PLATE
  mutagenic call: inactive; negative
Test System: AMES SALMONELLA TYPHIMURIUM, Strain/Indicator: TA1537, Metabolic Activation: NONE, Method: STANDARD PLATE
  mutagenic call: inactive; negative
Test System: AMES SALMONELLA TYPHIMURIUM, Strain/Indicator: TA1537, Metabolic Activation: RAT LIVER S-9, AROCLOR 1254, Method: STANDARD PLATE
  mutagenic call: inactive; negative
Test System: AMES SALMONELLA TYPHIMURIUM, Strain/Indicator: TA1538, Metabolic Activation: NONE, Method: STANDARD PLATE
  mutagenic call: inactive; negative
Test System: AMES SALMONELLA TYPHIMURIUM, Strain/Indicator: TA1538, Metabolic Activation: RAT LIVER S-9, AROCLOR 1254, Method: STANDARD PLATE
  mutagenic call: inactive; negative
Test System: E. COLI, Strain/Indicator: P3078 POLA, Metabolic Activation: NONE, Method: SPOT TEST
  mutagenic call: inactive; negative
Test System: E. COLI, Strain/Indicator: P3078 POLA, Metabolic Activation: RAT LIVER S-9, AROCLOR 1254, Method: SPOT TEST
  mutagenic call: inactive; negative
Test System: E. COLI, Strain/Indicator: W3110, Metabolic Activation: NONE, Method: SPOT TEST
  mutagenic call: inactive; negative
Test System: E. COLI, Strain/Indicator: W3110, Metabolic Activation: RAT LIVER S-9, AROCLOR 1254, Method: SPOT TEST
  mutagenic call: inactive; negative
Test System: MOUSE LYMPHOMA, Strain/Indicator: L5178Y (TK+/TK-), Metabolic Activation: NONE, Method: SUSPENSION/PLATE
  mutagenic call: inactive; negative
Test System: MOUSE LYMPHOMA, Strain/Indicator: L5178Y (TK+/TK-), Metabolic Activation: RAT, LIVER, S-9, Method: SUSPENSION/PLATE
  mutagenic call: inactive; negative

## CS(C)=O.[Cl-].[Cl-].[Pt+2].c1ccncc1
Test System: AMES SALMONELLA TYPHIMURIUM, Strain/Indicator: TA92, Metabolic Activation: NONE, Method: STANDARD PLATE
  mutagenic call: inactive; negative
[1]
  mutagenic call: inactive; negative
[2]
  mutagenic call: inactive; negative
Test System: AMES SALMONELLA TYPHIMURIUM, Strain/Indicator: TA2410, Metabolic Activation: NONE, Method: STANDARD PLATE
  mutagenic call: inactive; negative

## O[C@@H]1[C@H]2O[C@H]2c2c(ccc3c4ccccc4c4ccccc4c23)[C@H]1O
[3]
  mutagenic call: active; positive
[4]
  mutagenic call: active; positive
[5]
  mutagenic call: active; positive
Test System: AMES SALMONELLA TYPHIMURIUM, Strain/Indicator: TA104, Metabolic Activation: NONE, Method: PREINCUBATION
  mutagenic call: active; positive
Test System: CHINESE HAMSTER V-79, Strain/Indicator: V-79/6-THIOGUANINE, Metabolic Activation: NONE
  mutagenic call: active; positive

## CC1OC1C (stereo unspecified)
Test System: AMES SALMONELLA TYPHIMURIUM, Strain/Indicator: TA97, Metabolic Activation: HAMSTER, LIVER, S-9, AROCLOR 1254 (30%), Method: PREINCUBATION
  mutagenic call: inactive; negative
[3]
  mutagenic call: inactive; negative
Test System: AMES SALMONELLA TYPHIMURIUM, Strain/Indicator: TA97, Metabolic Activation: RAT, LIVER, S-9, AROCLOR 1254 (30%), Method: PREINCUBATION
  mutagenic call: inactive; negative
Test System: AMES SALMONELLA TYPHIMURIUM, Strain/Indicator: TA98, Metabolic Activation: HAMSTER, LIVER, S-9, AROCLOR 1254 (30%), Method: PREINCUBATION
  mutagenic call: inactive; negative
[4]
  mutagenic call: inactive; negative
Test System: AMES SALMONELLA TYPHIMURIUM, Strain/Indicator: TA98, Metabolic Activation: RAT, LIVER, S-9, AROCLOR 1254 (30%), Method: PREINCUBATION
  mutagenic call: inactive; negative
Test System: AMES SALMONELLA TYPHIMURIUM, Strain/Indicator: TA100, Metabolic Activation: HAMSTER, LIVER, S-9, AROCLOR 1254 (30%), Method: PREINCUBATION
  mutagenic call: inactive; negative
[5]
  mutagenic call: inactive; negative
Test System: AMES SALMONELLA TYPHIMURIUM, Strain/Indicator: TA100, Metabolic Activation: RAT, LIVER, S-9, AROCLOR 1254 (30%), Method: PREINCUBATION
  mutagenic call: inactive; negative
Test System: AMES SALMONELLA TYPHIMURIUM, Strain/Indicator: TA1535, Metabolic Activation: HAMSTER, LIVER, S-9, AROCLOR 1254 (30%), Method: PREINCUBATION
  mutagenic call: active; positive
Test System: AMES SALMONELLA TYPHIMURIUM, Strain/Indicator: TA1535, Metabolic Activation: RAT, LIVER, S-9, AROCLOR 1254 (30%), Method: PREINCUBATION
  mutagenic call: active; positive
Test System: AMES SALMONELLA TYPHIMURIUM, Strain/Indicator: TA1537, Metabolic Activation: HAMSTER, LIVER, S-9, AROCLOR 1254 (30%), Method: PREINCUBATION
  mutagenic call: inactive; negative
Test System: AMES SALMONELLA TYPHIMURIUM, Strain/Indicator: TA1537, Metabolic Activation: NONE, Method: PREINCUBATION
  mutagenic call: inactive; negative
Test System: AMES SALMONELLA TYPHIMURIUM, Strain/Indicator: TA1537, Metabolic Activation: RAT, LIVER, S-9, AROCLOR 1254 (30%), Method: PREINCUBATION
  mutagenic call: inactive; negative

## CCCNCC(=O)NC(=O)C=[N+]=[N-]
Test System: UDS RODENT CELLS, Strain/Indicator: THY INCORP (NON-S-PHASE), Metabolic Activation: NONE, Method: AUTORADIOGRAPHY
  mutagenic call: active; positive

## O=[N+]([O-])c1ccc2[nH]c3c([N+](=O)[O-])cccc3c2c1
Test System: AMES SALMONELLA TYPHIMURIUM, Strain/Indicator: TA98(NR), Metabolic Activation: NONE, Method: STANDARD PLATE
  mutagenic call: active; positive
Test System: AMES SALMONELLA TYPHIMURIUM, Strain/Indicator: TA98(NR), Metabolic Activation: RAT, LIVER, S-9, AROCLOR 1254, Method: STANDARD PLATE
  mutagenic call: active; positive
[1]
  mutagenic call: active; positive
Test System: AMES SALMONELLA TYPHIMURIUM, Strain/Indicator: TA98, Metabolic Activation: RAT, LIVER, S-9, AROCLOR 1254, Method: STANDARD PLATE
  mutagenic call: active; positive

## Fc1cccc2cc3c(cc12)-c1cccc2cccc-3c12
Test System: AMES SALMONELLA TYPHIMURIUM, Strain/Indicator: TA100, Metabolic Activation: RAT, LIVER, S-9, AROCLOR 1254, Method: STANDARD PLATE
  mutagenic call: active; positive

## O=c1nc(NNCCO)ccn1[C@@H]1O[C@H](CO)[C@@H](O)[C@H]1O
Test System: CHINESE HAMSTER V-79, Strain/Indicator: V-79/6-THIOGUANINE, Metabolic Activation: NONE, Method: REPLATING
  mutagenic call: active; positive
